Values quoted from earlier work in patent US20240001339A1, “DRYING PROCESSES FOR BIO-COMPATIBLE SPME COATINGS” (SIGMS-ALDRICH CO. LLC, priority 2020, published 2024).

Legend:
[1] = for conventional SPME devices

NC(=O)N1c2ccccc2C=Cc2ccccc21 [Carbamazepine]
reference protein binding [1]: 70-80% | Log p: 2.45 | pKa: 13.9
